Reference: PMC3759464 (PLoS ONE, 2013)
Like-named read-outs stand apart in the source and are kept apart here.

Assays:
hH4R [1] = target: T1, hH4R (Homo sapiens, UniProt Q9H3N8); experiment: cell-based; set-up: gene HRH4; SF-hH4R-His6: cleavable influenza hemagglutinin signal peptide and FLAG, hexahistidine tag; stably expressed in HEK293T with CRE-luc2P reporter; settings: HEK293T-CRE-Luc stably expressing SF-H4R-His6, read-out: hH4R / α
rH4R [2] = target: T2, rH4R (Rattus norvegicus, UniProt Q91ZY1); experiment: cell-based; set-up: gene Hrh4; SF-rH4R-His6: cleavable influenza hemagglutinin signal peptide and FLAG, hexahistidine tag; GTPgammaS: Sf9 membranes co-expressing Galphai2 and Gbeta1gamma2; species or system HEK293T; CRE-luciferase reporter gene assay, inhibition of forskolin-stimulated luminescence, agonist mode; settings: HEK-293T, read-out: rH4R / α
mH4R [3] = target: T3, mH4R (Mus musculus, UniProt Q91ZY2); experiment: cell-based; set-up: gene Hrh4; SF-mH4R-His6: cleavable influenza hemagglutinin signal peptide and FLAG, hexahistidine tag; GTPgammaS: Sf9 membranes co-expressing Galphai2 and Gbeta1gamma2; species or system HEK293T-CRE-Luc stably expressing SF-H4R-His6
T3 sequence (Q91ZY2 1-391): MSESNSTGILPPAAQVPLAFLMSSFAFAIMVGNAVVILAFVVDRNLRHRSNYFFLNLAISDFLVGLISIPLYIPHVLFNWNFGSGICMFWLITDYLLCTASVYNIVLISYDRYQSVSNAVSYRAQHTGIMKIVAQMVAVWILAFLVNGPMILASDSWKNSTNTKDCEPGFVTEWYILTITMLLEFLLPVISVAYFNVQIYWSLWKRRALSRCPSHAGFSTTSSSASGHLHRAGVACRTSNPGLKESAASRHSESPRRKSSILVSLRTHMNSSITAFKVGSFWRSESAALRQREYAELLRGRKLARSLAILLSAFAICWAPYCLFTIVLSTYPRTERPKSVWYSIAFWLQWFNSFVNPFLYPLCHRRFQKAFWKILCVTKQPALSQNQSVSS

rH4R [4] = target: T2, rH4R; experiment: cell-based; set-up: gene Hrh4
rH4R [5] = target: T2, rH4R; experiment: CRE-luciferase reporter gene assay, HEK293T; assay type: cell-based; set-up: gene Hrh4; SF-rH4R-His6: cleavable influenza hemagglutinin signal peptide and FLAG, hexahistidine tag; settings: for rH4R / pEC50 or (pKB): 1 µM forskolin, 5 h, 37 °C, agonist mode; for EC50: read-out: rH4R / pEC50 or (pKB) (converted)
mH4R [6] = target: T3, mH4R; experiment: CRE-luciferase reporter gene assay, HEK293T; assay type: cell-based; set-up: gene Hrh4; SF-mH4R-His6: cleavable influenza hemagglutinin signal peptide and FLAG, hexahistidine tag; settings: for mH4R / pEC50 or (pKB): 1 µM forskolin, 5 h, 37 °C, agonist mode; for EC50: read-out: mH4R / pEC50 or (pKB) (converted)
rH4R [7] = target: T2, rH4R; experiment: […]GTPγS binding, Sf9 membranes; assay type: biochemical; set-up: gene Hrh4; SF-rH4R-His6: cleavable influenza hemagglutinin signal peptide and FLAG, hexahistidine tag; GTPgammaS: Sf9 membranes co-expressing Galphai2 and Gbeta1gamma2; settings: read-out: rH4R / pEC50 or (pKB) (converted)
rH4R [8] = target: T2, rH4R; experiment: CRE-luciferase reporter gene assay, HEK293T; assay type: cell-based; set-up: gene Hrh4; SF-rH4R-His6: cleavable influenza hemagglutinin signal peptide and FLAG, hexahistidine tag; settings: read-out: rH4R / pEC50 or (pKB) (converted)
mH4R [9] = target: T3, mH4R; experiment: […]GTPγS binding, Sf9 membranes; assay type: biochemical; set-up: gene Hrh4; SF-mH4R-His6: cleavable influenza hemagglutinin signal peptide and FLAG, hexahistidine tag; GTPgammaS: Sf9 membranes co-expressing Galphai2 and Gbeta1gamma2; settings: read-out: mH4R / pEC50 or (pKB) (converted)
rH4R [10] = target: T2, rH4R; experiment: cell-based; set-up: gene Hrh4; settings: HEK293T-CRE-Luc stably expressing SF-H4R-His6, read-out: rH4R / α
hH4R [11] = target: T1, hH4R; experiment: cell-based; set-up: gene HRH4; SF-hH4R-His6: cleavable influenza hemagglutinin signal peptide and FLAG, hexahistidine tag; stably expressed in HEK293T with CRE-luc2P reporter; species or system HEK293T; CRE-luciferase reporter gene assay, inhibition of forskolin-stimulated luminescence, agonist mode; settings: HEK-293T, read-out: hH4R / α
hH4R [12] = target: T1, hH4R; experiment: cell-based; set-up: gene HRH4
mH4R [13] = target: T3, mH4R; experiment: cell-based; set-up: gene Hrh4; settings: HEK293T-CRE-Luc stably expressing SF-H4R-His6, read-out: mH4R / α / −0.23±0.03
[14] = HEK293T-CRE-Luc stably expressing SF-H4R-His6, read-out: mH4R / α
[15] = HEK293T-CRE-Luc stably expressing SF-H4R-His6, read-out: rH4R / α
[16] = HEK293T-CRE-Luc stably expressing SF-H4R-His6, read-out: hH4R / α / −0.32±0.04 / −0.39±0.03

T2 sequence (Q91ZY1 whole entry): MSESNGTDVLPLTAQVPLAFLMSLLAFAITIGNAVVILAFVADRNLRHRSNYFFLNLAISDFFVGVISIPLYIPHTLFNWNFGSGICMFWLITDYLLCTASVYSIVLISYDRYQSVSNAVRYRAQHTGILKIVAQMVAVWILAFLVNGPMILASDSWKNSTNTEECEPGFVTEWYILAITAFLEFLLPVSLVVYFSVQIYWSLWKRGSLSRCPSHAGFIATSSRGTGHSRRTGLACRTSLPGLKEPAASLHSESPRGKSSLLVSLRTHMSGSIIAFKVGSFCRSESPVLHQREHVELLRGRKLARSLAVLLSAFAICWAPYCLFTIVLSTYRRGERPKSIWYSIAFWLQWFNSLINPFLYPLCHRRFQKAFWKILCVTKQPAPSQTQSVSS
T1 sequence (Q9H3N8 whole entry): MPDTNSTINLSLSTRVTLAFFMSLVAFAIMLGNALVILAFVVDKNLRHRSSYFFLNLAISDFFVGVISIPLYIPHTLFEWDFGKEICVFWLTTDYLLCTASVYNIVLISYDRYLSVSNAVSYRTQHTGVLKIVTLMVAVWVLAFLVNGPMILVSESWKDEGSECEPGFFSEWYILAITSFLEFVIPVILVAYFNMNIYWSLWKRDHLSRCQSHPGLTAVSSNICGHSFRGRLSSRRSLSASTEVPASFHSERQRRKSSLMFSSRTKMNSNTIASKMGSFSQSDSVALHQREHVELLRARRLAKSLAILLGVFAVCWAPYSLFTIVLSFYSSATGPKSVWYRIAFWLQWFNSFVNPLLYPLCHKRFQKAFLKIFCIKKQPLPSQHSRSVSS

Compound: N#CNC(=NCCCCc1cnc[nH]1)NCCSc1ccccc1 [UR-PI376 (14)]
- Emax (hH4R [1]): 102 ± 2%
- Emax (rH4R [2]): 8 ± 10%
- Emax (mH4R [3]; [14]): 51 ± 5%

Compound: NCCc1c[nH]cn1 [compound 1, Histamine]
- Emax (hH4R [1]): 100%
- Emax (rH4R [4]; [15]): 100%
- Emax (mH4R [3]; [14]): 100%

Compound: C[C@@H](N)Cc1cnc[nH]1 [compound 2, (R)-α-Methylhistamine]
- Emax (hH4R [1]): 103 ± 4%
- rH4R / pEC50 or (pKB) (rH4R [5]): 5.60±0.12
- Emax (rH4R [4]; [15]): 96 ± 2%
- mH4R / pEC50 or (pKB) (mH4R [6]): 6.16±0.07
- Emax (mH4R [3]; [14]): 98 ± 1%

Compound: C[C@H](N)Cc1c[nH]cn1 [compound 3, (S)-α-Methylhistamine]
- Emax (hH4R [1]): 90 ± 4%
- rH4R / pEC50 or (pKB) (rH4R [5]): 4.26±0.04
- Emax (rH4R [4]; [15]): 69 ± 3%
- mH4R / pEC50 or (pKB) (mH4R [6]): 4.72±0.16
- Emax (mH4R [3]; [14]): 82 ± 7%

Compound: CNCCc1cnc[nH]1 [compound 4, N^α-Methylhistamine]
- Emax (hH4R [1]): 98 ± 3%
- EC50 (rH4R [5]): 589 nM
- Emax (rH4R [4]; [15]): 98 ± 4%
- EC50 (mH4R [6]): 575 nM
- Emax (mH4R [3]; [14]): 97 ± 2%

Compound: Cc1nc[nH]c1CCN [compound 5, 5(4)-Methylhistamine]
- Emax (hH4R [1]): 97 ± 3%
- EC50 (rH4R [5]): 933 nM
- Emax (rH4R [4]; [15]): 100 ± 3%
- EC50 (mH4R [6]): 135 nM
- Emax (mH4R [3]; [14]): 97 ± 2%

Compound: c1nc(CC2CCNCC2)c[nH]1 [compound 6, Immepip]
- Emax (hH4R [1]): 98 ± 2%
- EC50 (rH4R [5]): 67.6 nM
- Emax (rH4R [4]; [15]): 93 ± 5%
- EC50 (mH4R [6]): 141 nM
- Emax (mH4R [3]; [14]): 95 ± 3%

Compound: c1cc(Cc2cnc[nH]2)ccn1 [compound 7, Immethridine]
- Emax (hH4R [1]): 65 ± 2%
- EC50 (rH4R [5]): 1580 nM
- Emax (rH4R [4]; [15]): 94 ± 1%
- EC50 (mH4R [6]): 1120 nM
- Emax (mH4R [3]; [14]): 87 ± 2%

Compound: N=C(N)SCCc1cnc[nH]1 [compound 8, Imetit]
- Emax (hH4R [1]): 94 ± 2%
- EC50 (rH4R [5]): 61.7 nM
- Emax (rH4R [4]; [15]): 95 ± 1%
- EC50 (mH4R [6]): 38.9 nM
- Emax (mH4R [3]; [14]): 96 ± 2%

Compound: NC(=NCc1ccc(Cl)cc1)SCCCc1cnc[nH]1 [compound 9, Clobenpropit]
- Emax (hH4R [1]): 97 ± 3%
- EC50 (rH4R [5]): 158 nM
- Emax (rH4R [4]; [15]): 37 ± 3%
- EC50 (mH4R [6]): 186 nM
- Kb (rH4R [7]): 501 nM
- Emax (mH4R [3]; [14]): 55 ± 5%

Compound: c1ccc(COCCCc2c[nH]cn2)cc1 [compound 11, Proxyfan]
- Emax (hH4R [1]): 68 ± 2%
- EC50 (rH4R [5]): 2140 nM
- Emax (rH4R [4]; HEK293T-CRE-Luc stably expressing SF-H4R-His6, read-out: rH4R / α / −0.01±0.06): 76 ± 3%
- EC50 (mH4R [6]): 794 nM
- Emax (mH4R [3]; [14]): 88 ± 4%

Compound: N#C/N=C(/NCCCCc1c[nH]cn1)NCCSc1ccccc1 [compound 14, 2-cyano-1-[4-(1H-imidazol-4-yl)butyl]-3-[(2-phenylthio)ethyl]guanidine]
- Kb (rH4R [8]): 7080 nM
- EC50 (mH4R [6]): 245 nM
- Kb (mH4R [9]): 794 nM

Compound: CN1CCN(c2cc(NCc3c(Cl)cccc3Cl)nc(N)n2)CC1 [compound 16, ST-1006]
- Emax (hH4R [1]): 91 ± 1%
- Emax (mH4R [3]; [14]): 37 ± 4%
- Emax (rH4R [10]): -55 ± 12%

Compound: CN1CCN(C2=Nc3cc(Cl)ccc3Nc3ccccc32)CC1 [compound 17, Clozapine]
- Emax (hH4R [1]): 130 ± 5%

Compound: c1ncc(CCCC2CCNCC2)[nH]1 [compound 18, VUF 5681]
- EC50 (mH4R [6]): 6310 nM
- Emax (hH4R [11]): 9%
- Emax (mH4R [3]; [14]): 42 ± 2%

Compound: S=C(NC1CCCCC1)N1CCC(c2c[nH]cn2)CC1 [compound 20, Thioperamide]
- Emax (hH4R [12]; HEK293T-CRE-Luc stably expressing SF-H4R-His6, read-out: hH4R / α / −0.31±0.06): -32 ± 4%
- Emax (rH4R [2]): -20 ± 2%
- Emax (mH4R [13]): -44 ± 2%

Compound: CN1CCN(c2cc(N3Cc4ccccc4C3)nc(N)n2)CC1 [compound 21, ST-1012]
- EC50 (rH4R [5]): 7.59 nM
- Emax (rH4R [4]; HEK293T-CRE-Luc stably expressing SF-H4R-His6, read-out: rH4R / α / −0.20±0.02): 24 ± 7%
- EC50 (mH4R [6]): 32.4 nM
- Emax (hH4R [12]; HEK293T-CRE-Luc stably expressing SF-H4R-His6, read-out: hH4R / α / −0.31±0.06 / −0.32±0.04): -39 ± 3%
- Emax (mH4R [3]; HEK293T-CRE-Luc stably expressing SF-H4R-His6, read-out: mH4R / α / −0.23±0.03 / −0.44±0.02): 24 ± 5%

Compound: Nc1nc2c(c(N3CC[C@@H](N)C3)n1)CCCc1ccccc1-2 [compound 22, A 943931]
- Emax (hH4R [12]; [16]): -63 ± 7%
- Emax (rH4R [2]): -6%

Compound: Nc1nc2c(c(N3CCNCC3)n1)CCC1=C2[C@H]2CCCC[C@H]2O1 [compound 23, A 987306]
- Emax (hH4R [12]; [16]): -62 ± 7%
- Emax (rH4R [2]): -8%
